Measured values from patent publication US20240174618A1, “SUBSTITUTED (2-HETEROARYLOXYPHENYL)SULFONATES, SALTS THEREOF AND THEIR USE AS HERBICIDAL AGENTS” (Bayer Aktiengesellschaft, priority 2021, published 2024).

How the values were obtained:
Type in all cases: in vivo
[1] = test system: Viola tricolor (VIOTR); assay: C. Herbicidal pre-emergence efficacy, VIOTR
From the text: Seeds of monocotyledonous and dicotyledonous weed plants and crop plants were placed in plastic or organic planting pots and covered with soil. The compounds of the invention, formulated in the form of wettable powders (WP) or as emulsion concentrates (EC), were then applied to the surface of the covering soil as aqueous suspension or emulsion with addition of 0.5% additive at a water application rate equivalent to 600 l/ha (converted). After the treatment, the pots were placed in a greenhouse and kept under good growth conditions for the test plants. After about 3 weeks, the efficacy of the preparations was scored visually in comparison with untreated controls as percentages. For example, • 100% efficacy=plants have died, • 0% efficacy=like untreated control plants.
Tables C1a to C14b below show the effects of selected compounds of the general formula (I) according to table 1 on various harmful plants at an application rate corresponding to 320 g/ha or less, which were obtained by the experimental procedure mentioned above.

[2] = test system: Veronica persica (VERPE); assay: E. Herbicidal post-emergence efficacy, VERPE
Method: Seeds of monocotyledonous and dicotyledonous weeds and crop plants were placed in sandy loam in plastic or organic planting pots, covered with soil and cultivated in a greenhouse under controlled growth conditions. 2 to 3 weeks after sowing, the test plants were treated at the one-leaf stage. The compounds of the invention, formulated in the form of wettable powders (WP) or as emulsion concentrates (EC), were then sprayed onto the green parts of the plants as aqueous suspension or emulsion with addition of 0.5% additive at a water application rate of 600 l/ha (converted). After the test plants had been kept in the greenhouse under optimum growth conditions for about 3 weeks, the activity of the preparations was rated visually in comparison to untreated controls.
For example, • 100% efficacy=plants have died, • 0% action=like untreated control plants.
Tables E1a to E12b below show the effects of selected compounds of the general formula (I) according to table 1 on various harmful plants at an application rate corresponding to 320 g/ha or less, which were obtained by the experimental procedure mentioned above.

[3] = test system: Abutilon theophrasti (ABUTH); assay: B. Herbicidal post-emergence efficacy, ABUTH; settings: rated visually after about 3 weeks
Method in brief: (§1)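 Post-emergence greenhouse test: one-leaf-stage plants, compound (WP/EC, +0.5% additive, 600 L/ha water, ≤1280 g/ha) applied to green parts; % efficacy scored visually vs untreated after ~3 wk; 100% = plants died.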

[4] = test system: Setaria viridis (SETVI); assay: A. Herbicidal pre-emergence efficacy, SETVI
Method in brief: (§2)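 Applied before emergence onto covering soil at rates of 1280 g/ha or less, using 600 L/ha spray water with 0.5% additive. Scoring: visual % efficacy after ~3 weeks, greenhouse.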

[5] = test system: Poa annua (POAAN); assay: A. Herbicidal pre-emergence efficacy, POAAN
Method in brief: as §2

[6] = test system: Amaranthus retroflexus (AMARE); assay: B. Herbicidal post-emergence efficacy, AMARE
Method in brief: as §1

Row | Structure (SMILES) | Pre-emergence efficacy against VIOTR in % ([1]; application rate 80 g/ha) [%] | Pre-emergence efficacy against VIOTR in % ([1]; application rate 320 g/ha) [%] | Post-emergence efficacy against VERPE in % ([2]; application rate 80 g/ha) [%] | Post-emergence efficacy against VERPE in % ([2]; application rate 320 g/ha) [%] | Post-emergence efficacy against ABUTH in % ([3]; 320 g/ha) [%] | Post-emergence efficacy against ABUTH in % ([3]; 1280 g/ha) [%] | Pre-emergence efficacy against SETVI ([4]; dosage 320 g/ha) [%] | Pre-emergence efficacy against SETVI ([4]; dosage 1280 g/ha) [%] | Pre-emergence efficacy against POAAN ([5]; dosage 320 g/ha) [%] | Pre-emergence efficacy against POAAN ([5]; dosage 1280 g/ha) [%] | Post-emergence efficacy against AMARE ([6]; 80 g/ha) [%] | Post-emergence efficacy against AMARE ([6]; 320 g/ha) [%] | Post-emergence efficacy against AMARE ([6]; 1280 g/ha) [%] | Pre-emergence efficacy against SETVI ([4]; dosage 80 g/ha) [%] | Pre-emergence efficacy against POAAN ([5]; dosage 80 g/ha) [%] | Post-emergence efficacy against ABUTH in % ([3]; 80 g/ha) [%]
1 | O=S(=O)(CCC(F)=C(F)F)Oc1c(F)cccc1Oc1ncc(Cl)cn1 [Example I-70] | 100 | 100 | 100 | 100 | – | – | – | – | – | – | – | – | – | – | – | –
2 | O=S(=O)(CCl)Oc1ccccc1Oc1ncc(Cl)cn1 [Example I-9] | 90 | 100 | 80 | 90 | 90 | 90 | 100 | 100 | 90 | 100 | 90 | 100 | 100 | – | – | –
3 | CC(C)CS(=O)(=O)Oc1ccccc1Oc1ncc(Cl)cn1 [Example I-7, [2-(5-Chloropyrimidin-2-yl)oxyphenyl] 2-methylpropane-1-sulfonate] | 80 | 100 | 90 | 100 | 90 | 90 | 100 | 100 | 100 | 100 | – | 90 | 90 | 100 | 100 | –
4 | Cc1cccc(Oc2ncc(F)cn2)c1OS(=O)(=O)CCCC(F)(F)F [Example I-46] | 100 | 100 | 100 | 100 | 100 | 100 | 100 | 100 | 100 | 100 | – | – | – | 90 | 90 | –
5 | O=S(=O)(CCC(F)(F)F)Oc1c(F)cccc1Oc1ncc(F)cn1 [Example I-47] | 100 | 100 | 100 | 100 | 100 | 100 | 100 | 100 | 100 | 100 | – | – | – | 100 | 100 | 90
6 | O=S(=O)(CCCC(F)(F)F)Oc1c(F)cccc1Oc1ncc(F)cn1 [Example I-42] | 100 | 100 | 100 | 100 | 100 | 100 | 100 | 100 | 100 | 100 | – | – | – | 100 | 100 | 100
7 | O=S(=O)(CCCCCl)Oc1ccccc1Oc1ncc(Cl)cn1 [Example I-15] | 100 | 100 | 90 | 100 | 100 | 100 | 100 | 100 | 100 | 100 | 100 | 100 | 100 | 100 | 100 | 100
8 | Cc1cccc(OS(=O)(=O)CCCCl)c1Oc1ncc(Cl)cn1 [Example I-12] | – | 90 | 100 | 100 | – | – | 100 | 100 | 100 | 100 | – | 90 | 100 | – | – | –
9 | O=S(=O)(CCC(F)(F)F)Oc1ccccc1Oc1ncc(Cl)cn1 [Example I-8] | 90 | 90 | 90 | 100 | – | 90 | 100 | 100 | 100 | 100 | 90 | 100 | 100 | 100 | 90 | –
10 | Cc1cccc(Oc2ncc(F)cn2)c1OS(=O)(=O)CCC(F)(F)F [Example I-45] | 100 | 100 | 80 | 100 | 100 | 100 | 100 | 100 | 100 | 100 | – | – | – | 90 | 90 | –
11 | O=S(=O)(CCC(F)(F)F)Oc1c(Br)cccc1Oc1ncc(F)cn1 [Example I-43] | 90 | 100 | 100 | 100 | 90 | 100 | 100 | 100 | 100 | 100 | – | – | – | – | – | –
12 | N#Cc1cccc(Oc2ncc(Cl)cn2)c1OS(=O)(=O)CCCC(F)(F)F [Example I-81] | 100 | 100 | 100 | 100 | – | – | – | – | – | – | – | – | – | – | – | –
13 | C=CCS(=O)(=O)Oc1ccccc1Oc1ncc(Cl)cn1 [Example I-36] | – | – | 80 | 100 | – | – | – | 100 | – | 90 | – | 90 | 100 | – | – | –
